Read-outs that look alike come from different tables or passages of the source.
Tested on: serum polyclonal antirhamnose antibodies (human IgG)
Test: BLI affinity of rhamnose probes for polyclonal human IgG
Format: binding
Conditions: for kon: anti-rhamnose assumed 3% of total IgG; for koff: dissociation in 100 mM L-rhamnose
From the text: We began by synthesizing antirhamnose affinity probes consisting of α-O/α-S and β-S rhamnose glycosides functionalized with a propargyl group for CuAAC-mediated coupling to a biotin TBD (compounds 1–3, Figure 1A and Scheme S1). This enabled rhamnose immobilization onto streptavidin surfaces and subsequent antibody binding studies. We used biolayer interferometry (BLI) to estimate and compare the apparent affinity of serum polyclonal antirhamnose antibodies for each rhamnose affinity probe (Figure 1B). […] Next, biosensors were submerged in a buffer containing free rhamnose competitor, and dissociation kinetics were measured (Figure 1B, Dissociation). The dissociation buffer contained 100 mM rhamnose competitor to inhibit avidity-based antibody rebinding, which interferes with koff measurements. […] In the context of proximity-inducing molecule development, this low monovalent sugar-binding affinity will ultimately limit ternary complex formation. […] The confirmation of low affinity binding also supports why multivalency has been historically required to efficiently engage antirhamnose antibodies for tumor-immune proximity induction and engage sugar binding receptors in general.
Figure 1 Affinity determination of endogenous and monoclonal antibody sources for L-rhamnose glycoside variants. A. Chemical structures of rhamnose affinity probes. B/C. Approximation of antirhamnose antibody binding affinity for probes 1–3 using biolayer interferometry. B. Purified human serum IgG is used to estimate the affinity of endogenous polyclonal serum antirhamnose antibodies for each affinity probe 1–3. C. Monoclonal anti-23F antibody is used to estimate the potential affinity of vaccine-induced antirhamnose antibodies for each affinity probe 1–3. […] Association was monitored for 900 (B) or 600 (C) seconds. The loaded biosensor probe was then dipped into a dissociation solution of 100 mM L-rhamnose for 600 s. Association curves were fit to a two-phase association model in GraphPad Prism using Kfast to calculate kon. Dissociation curves were similarly fit to a two-phase decay using Kfast to calculate koff. TEXT PRINTED IN THE PICTURE: (B) no label printed: Polyclonal Human IgG: Kd ≈ 7 x10^-5 M | (C) no label printed: Monoclonal Anti-23F: Kd ≈ 6 x10^-6 M DOUBTS OF THE COPYIST ABOUT THIS PICTURE: Panel B, Kd ≈ 7 x10^-5 M: printed once in the plot with no link to a single curve, so it is unclear which of (1) α–O, (2) α–S and (3) β–S it applies to / Panel C, Kd ≈ 6 x10^-6 M: printed once in the plot with no link to a single curve, so it is unclear which of (1) α–O, (2) α–S and (3) β–S it applies to […]
General Notes and Materials […]
Biolayer Interferometry (BLI) General notes and Materials
IgG from human serum was purchased from Innovative Research (IHUI GGAP1000MG). Anti -23F antibody was purchased fr om Creative Biolabs (PABX -173). Biolayer Interferometry (BLI) was conducted using a ForteBio Octet Red96, and streptavidin biosensors (Sartorius - 18-5019) or ProG biosensors (Sartorius – 18-5082). For quench, a 5% skim milk (Nestle Carnation Instant Skim Milk) solution in 1X kinetics buffer was used. The instrument was set at 25 °C, with 1000 RPM, and acquisition rate of 5 Hz.
Each well of a black well plate (Greiner Bio -One - 655086) was filled with 200 µL of appropriate solution.
Dissociation buffer was comprised of L-rhamnose (100 mM, Sigma Aldrich – R3875-10G) in 1X kinetics buffer to reduce avidity contribution to dissociation rate (koff).
SDS-PAGE General notes and Materials […]
Carboxyfluorescein was purchased from Sigma Aldrich (21877 -5G-F). IgG from human serum was purchased from Innovative Research (IHUIGGAP1000MG). Anti -23F antibody was purchased from Creative Biolabs (PABX -173). Laemellie Buffer (2x) was purchased from Sigma Aldrich (S3401 -10VL).
Pre-cast Tris-Glycine Gels (4-20%) were purchased from Fisher Scientific (XP04202BOX). Standard protein ladder was purchased from Bio Rad (1610363). […]

[1] = average of three IgG concentrations, read-out: Avg Kd

C[C@@H]1O[C@@H](SCc2cn(CCOCCNC(=O)OCCOCCOCCOCCOCCOCCOCCOCCNC(=O)CCCC[C@@H]3SC[C@@H]4NC(=O)N[C@@H]43)nn2)[C@H](O)[C@H](O)[C@H]1O [compound 2]
kon (26.2 µM IgG): 21981 M⁻¹ s⁻¹
koff (26.2 µM IgG): 1.103 s⁻¹
Kd (26.2 µM IgG, read-out: Kd): 50 µM
kon (52.5 µM IgG): 14298 M⁻¹ s⁻¹
koff (52.5 µM IgG): 0.97 s⁻¹
Kd (52.5 µM IgG, read-out: Kd): 68 µM
kon (105 µM IgG): 8194 M⁻¹ s⁻¹
koff (105 µM IgG): 0.8262 s⁻¹
Kd (105 µM IgG, read-out: Kd): 101 µM
Kd [1]: 73 ± 26 µM

C[C@@H]1O[C@@H](OCc2cn(CCOCCNC(=O)OCCOCCOCCOCCOCCOCCOCCOCCNC(=O)CCCC[C@@H]3SC[C@@H]4NC(=O)N[C@@H]43)nn2)[C@H](O)[C@H](O)[C@H]1O [compound 1]
kon (26.2 µM IgG): 20749 M⁻¹ s⁻¹
koff (26.2 µM IgG): 1.199 s⁻¹
Kd (26.2 µM IgG, read-out: Kd): 58 µM
kon (52.5 µM IgG): 13810 M⁻¹ s⁻¹
koff (52.5 µM IgG): 1.112 s⁻¹
Kd (52.5 µM IgG, read-out: Kd): 81 µM
kon (105 µM IgG): 8235 M⁻¹ s⁻¹
koff (105 µM IgG): 1.058 s⁻¹
Kd (105 µM IgG, read-out: Kd): 128 µM
Kd [1]: 89 ± 36 µM
